System: NHBE cells
Test: Biolog metabolic array: substrate use by NHBE cells with or without CA09 infection
Assay type: cell-based, human
Details: for Substrate use, 590 nm absorbance normalized to zero hour, 1 hr: Biolog PMM2, 1 hr; for Substrate use, 590 nm absorbance normalized to zero hour, 5 hr: Biolog PMM2, 5 hr; for Substrate use, 590 nm absorbance normalized to zero hour, 7 hr: Biolog PMM2, 7 hr
[1] = Control (uninfected) NHBE cells
[2] = Virus (CA09, MOI 1) infected NHBE cells
[3] = Virus (CA09-infected, MOI 1) NHBE cells
[4] = Virus: CA09-infected NHBE cells, MOI 1, Biolog PMM2

| SMILES | 590 nm absorbance normalized to zero hour (substrate use), 1 hr [1] | 590 nm absorbance normalized to zero hour (substrate use), 2 hr [1] | 590 nm absorbance normalized to zero hour (substrate use), 3 hr [1] | 590 nm absorbance normalized to zero hour (substrate use), 4 hr [1] | 590 nm absorbance normalized to zero hour (substrate use), 6 hr [1] | 590 nm absorbance normalized to zero hour (substrate use), 8 hr [1] | 590 nm absorbance normalized to zero hour (substrate use), 9 hr [1] | 590 nm absorbance normalized to zero hour (substrate use), 10 hr [1] | 590 nm absorbance normalized to zero hour (substrate use), 11 hr [1] | Substrate use, 590 nm absorbance normalized to zero hour, 1 hr [1] | Substrate use, 590 nm absorbance normalized to zero hour, 5 hr [1] | Substrate use, 590 nm absorbance normalized to zero hour, 7 hr [1] | 590 nm absorbance normalized to zero hour (substrate use), 1 hr [3] | 590 nm absorbance normalized to zero hour (substrate use), 2 hr [3] | 590 nm absorbance normalized to zero hour (substrate use), 3 hr [3] | 590 nm absorbance normalized to zero hour (substrate use), 4 hr [3] | 590 nm absorbance normalized to zero hour (substrate use), 6 hr [3] | 590 nm absorbance normalized to zero hour (substrate use), 8 hr [3] | 590 nm absorbance normalized to zero hour (substrate use), 9 hr [3] | 590 nm absorbance normalized to zero hour (substrate use), 10 hr [3] | further results |
| --- | --- | --- | --- | --- | --- | --- | --- | --- | --- | --- | --- | --- | --- | --- | --- | --- | --- | --- | --- | --- | --- |
| OCC(O)CO [Glycerol] | 1.36 | 1.42 | 1.19 | 1.18 | 0.68 | 1.04 | 1.08 | 1.04 | 1.08 | 1.36 | 1.27 | 1.06 | 2.05 | 2.67 | 3.09 | 3.24 | 3.71 | 4.11 | 4.51 | 4.63 | Substrate use, 590 nm absorbance normalized to zero hour, 11 hr (Control (uninfected) NHBE cells, Biolog PMM2, 11 hr): 1.04; Substrate use, 590 nm absorbance normalized to zero hour, 1 hr [2]: 1.04; Substrate use, 590 nm absorbance normalized to zero hour, 2 hr (Virus (CA09, MOI 1) infected NHBE cells, Biolog PMM2, 2 hr): 1.04; Substrate use, 590 nm absorbance normalized to zero hour, 3 hr (Virus (CA09, MOI 1) infected NHBE cells, Biolog PMM2, 3 hr): 1.04; Substrate use, 590 nm absorbance normalized to zero hour, 4 hr (Virus (CA09, MOI 1) infected NHBE cells, Biolog PMM2, 4 hr): 1.04; Substrate use, 590 nm absorbance normalized to zero hour, 5 hr [2]: 3.55; Substrate use, 590 nm absorbance normalized to zero hour, 7 hr [2]: 3.91; 590 nm absorbance normalized to zero hour (substrate use), 11 hr [3]: 5.09 |
| COC(=O)C(C)=O [Methyl Pyruvate] | 1.32 | 1.57 | 1.25 | 1.36 | 0.77 | 1.65 | 1.74 | 1.79 | 1.76 | 1.32 | 1.59 | 1.51 | 1.93 | 2.20 | 2.60 | 2.51 | 2.87 | 3.03 | 3.24 | 3.21 | 590 nm absorbance normalized to zero hour (substrate use), 5 hr [3]: 2.66; 590 nm absorbance normalized to zero hour (substrate use), 7 hr [3]: 2.99; 590 nm absorbance normalized to zero hour (substrate use), 11 hr [3]: 3.04; 590 nm absorbance normalized to zero hour (substrate use), 1 hr [4]: 1.93; 590 nm absorbance normalized to zero hour (substrate use), 2 hr [4]: 2.20; 590 nm absorbance normalized to zero hour (substrate use), 3 hr [4]: 2.60; 590 nm absorbance normalized to zero hour (substrate use), 4 hr [4]: 2.51; 590 nm absorbance normalized to zero hour (substrate use), 5 hr [4]: 2.66; 590 nm absorbance normalized to zero hour (substrate use), 6 hr [4]: 2.87; 590 nm absorbance normalized to zero hour (substrate use), 7 hr [4]: 2.99; 590 nm absorbance normalized to zero hour (substrate use), 8 hr [4]: 3.03; 590 nm absorbance normalized to zero hour (substrate use), 9 hr [4]: 3.24; 590 nm absorbance normalized to zero hour (substrate use), 10 hr [4]: 3.21; 590 nm absorbance normalized to zero hour (substrate use), 11 hr [4]: 3.04 |
| COC(=O)[C@@H](C)O [Methyl D-Lactate] | 1.36 | 1.52 | 2.08 | 2.04 | 1.34 | 2.16 | 2.39 | 2.41 | 2.99 | 1.36 | 2.26 | 2.14 | 2.10 | 2.49 | 2.89 | 2.64 | 2.94 | 3.20 | 3.46 | 3.46 | 590 nm absorbance normalized to zero hour (substrate use), 5 hr [3]: 2.75; 590 nm absorbance normalized to zero hour (substrate use), 7 hr [3]: 3.10; 590 nm absorbance normalized to zero hour (substrate use), 11 hr [3]: 3.61; 590 nm absorbance normalized to zero hour (substrate use), 1 hr [4]: 2.10; 590 nm absorbance normalized to zero hour (substrate use), 2 hr [4]: 2.49; 590 nm absorbance normalized to zero hour (substrate use), 3 hr [4]: 2.89; 590 nm absorbance normalized to zero hour (substrate use), 4 hr [4]: 2.64; 590 nm absorbance normalized to zero hour (substrate use), 5 hr [4]: 2.75; 590 nm absorbance normalized to zero hour (substrate use), 6 hr [4]: 2.94; 590 nm absorbance normalized to zero hour (substrate use), 7 hr [4]: 3.10; 590 nm absorbance normalized to zero hour (substrate use), 8 hr [4]: 3.20; 590 nm absorbance normalized to zero hour (substrate use), 9 hr [4]: 3.46; 590 nm absorbance normalized to zero hour (substrate use), 10 hr [4]: 3.46; 590 nm absorbance normalized to zero hour (substrate use), 11 hr [4]: 3.61 |
